Reference: ChEMBL document CHEMBL1156282, “4-Substituted-7-azaindoles bearing a ureidobenzofuranone moiety as potent and selective, ATP-competitive inhibitors of the mammalian target of rapamycin (mTOR)” (Bioorg Med Chem Lett, 2010)

Experiments:
[1] = tested on: LNCaP; experiment: Antiproliferative activity against human LNCAP cells; format: functional, cell-based
[2] = Selectivity ratio of IC50 for PI3Kalpha to IC50 for mTOR
[3] = molecular target: Phosphatidylinositol 4,5-bisphosphate 3-kinase catalytic subunit alpha isoform (Homo sapiens, UniProt P42336); experiment: Inhibition of PI3Kalpha
Sequence of Phosphatidylinositol 4,5-bisphosphate 3-kinase catalytic subunit alpha isoform (P42336 whole entry, canonical isoform): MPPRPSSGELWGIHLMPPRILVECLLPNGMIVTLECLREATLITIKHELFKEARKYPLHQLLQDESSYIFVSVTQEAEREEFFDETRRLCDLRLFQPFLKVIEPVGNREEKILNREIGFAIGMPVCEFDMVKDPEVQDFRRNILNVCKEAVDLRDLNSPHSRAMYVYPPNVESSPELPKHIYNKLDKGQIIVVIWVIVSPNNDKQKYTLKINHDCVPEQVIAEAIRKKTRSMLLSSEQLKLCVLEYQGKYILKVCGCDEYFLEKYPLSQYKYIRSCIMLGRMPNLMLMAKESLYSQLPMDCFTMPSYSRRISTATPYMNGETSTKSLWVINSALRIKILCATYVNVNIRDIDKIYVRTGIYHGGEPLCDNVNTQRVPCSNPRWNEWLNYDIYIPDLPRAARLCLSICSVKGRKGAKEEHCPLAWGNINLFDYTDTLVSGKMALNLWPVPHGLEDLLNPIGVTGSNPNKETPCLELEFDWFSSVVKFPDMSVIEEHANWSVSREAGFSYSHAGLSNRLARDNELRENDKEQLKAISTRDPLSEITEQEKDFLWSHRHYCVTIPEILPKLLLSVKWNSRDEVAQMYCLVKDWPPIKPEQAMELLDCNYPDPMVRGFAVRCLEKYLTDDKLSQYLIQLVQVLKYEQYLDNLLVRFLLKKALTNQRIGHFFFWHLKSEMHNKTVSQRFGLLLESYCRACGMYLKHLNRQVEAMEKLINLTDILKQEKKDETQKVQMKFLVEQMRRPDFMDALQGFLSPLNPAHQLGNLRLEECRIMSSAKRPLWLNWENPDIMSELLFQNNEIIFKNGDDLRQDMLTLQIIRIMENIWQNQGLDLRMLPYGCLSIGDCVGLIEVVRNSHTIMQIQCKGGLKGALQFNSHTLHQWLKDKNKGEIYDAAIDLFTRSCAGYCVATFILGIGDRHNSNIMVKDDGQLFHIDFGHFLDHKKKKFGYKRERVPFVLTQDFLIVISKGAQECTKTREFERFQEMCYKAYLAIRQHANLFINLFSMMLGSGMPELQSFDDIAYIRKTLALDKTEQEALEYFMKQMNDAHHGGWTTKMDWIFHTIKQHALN

[4] = molecular target: Serine/threonine-protein kinase mTOR (Homo sapiens, UniProt P42345); experiment: Inhibition of mTOR

Compound | IC50 [1] | Ratio IC50 [2] | IC50 [3] | IC50 [4]
Cn1cc(/C=C2\Oc3ccc(NC(=O)Nc4cccnc4)cc3C2=O)c2c(N3CCC(C(=O)N4CCCCC4)CC3)ccnc21 | 18 nM | 12.6 |  | 
CCN(CC)C(=O)C1CCN(c2ccnc3c2c(/C=C2\Oc4ccc(NC(=O)Nc5cccnc5)cc4C2=O)cn3C)CC1 | 50 nM |  |  | 
Cn1cc(/C=C2\Oc3ccc(NC(=O)Nc4cccnc4)cc3C2=O)c2c(N3C4CCC3COC4)ccnc21 | 6 nM | 3 | 128 nM | 
Cn1cc(/C=C2\Oc3ccc(NC(=O)Nc4cccnc4)cc3C2=O)c2c(N3CCC(C(=O)N4CCOCC4)CC3)ccnc21 | 3200 nM | 148 | 2660 nM | 
CNC(=O)Nc1ccc2c(c1)C(=O)/C(=C/c1cn(C)c3nccc(-c4ccccc4)c13)O2 | 60000 nM |  |  | 
CN(C(=O)C1CCN(c2ccnc3c2c(/C=C2\Oc4ccc(NC(=O)Nc5cccnc5)cc4C2=O)cn3C)CC1)c1cccnc1 | 300 nM |  |  | 
CN(Cc1ccncc1)C(=O)C1CCN(c2ccnc3c2c(/C=C2\Oc4ccc(NC(=O)Nc5cccnc5)cc4C2=O)cn3C)CC1 | 23 nM | 132 |  | 
CN(C)C(=O)C1CCN(c2ccnc3c2c(/C=C2\Oc4ccc(NC(=O)Nc5cccnc5)cc4C2=O)cn3C)CC1 | 80 nM |  |  | 
Cn1cc(/C=C2\Oc3ccc(NC(=O)Nc4cccnc4)cc3C2=O)c2c(N3CC4CCC(C3)O4)ccnc21 | 15 nM |  |  | 
Cn1cc(/C=C2\Oc3ccc(NC(=O)Nc4cccnc4)cc3C2=O)c2c(N3CCC(C(=O)N4C5CCC4COC5)CC3)ccnc21 | 200 nM |  |  | 
Cn1cc(/C=C2\Oc3ccc(NC(=O)Nc4ccccc4)cc3C2=O)c2c(N3CC4CCC(C3)O4)ccnc21 | 280 nM | 3.4 |  | 

Next, values leading:

IC50 [1] | Ratio IC50 [2] | IC50 [3] | IC50 [4] | Compound
50 nM |  |  |  | Cn1cc(/C=C2\Oc3ccc(NC(=O)Nc4cccnc4)cc3C2=O)c2c(N3CCOCC3)ccnc21
200 nM | 25.4 |  |  | Cn1cc(/C=C2\Oc3cccc(O)c3C2=O)c2c(-c3ccccc3)ccnc21
90 nM |  |  |  | Cn1cc(/C=C2\Oc3ccc(NC(=O)Nc4cccnc4)cc3C2=O)c2c(N3CCC(C(=O)N4CC5CCC(C4)O5)CC3)ccnc21
60 nM |  |  |  | CN(C)CCNC(=O)Nc1ccc2c(c1)C(=O)/C(=C/c1cn(C)c3nccc(N4CC5CCC(C4)O5)c13)O2
140 nM |  |  |  | CNC(=O)Nc1ccc2c(c1)C(=O)/C(=C/c1cn(C)c3nccc(N4CC5CCC(C4)O5)c13)O2
> 60000 nM | 76.6 |  |  | Cn1cc(/C=C2\Oc3ccc(NC(=O)Nc4ccc(N5CCOCC5)nc4)cc3C2=O)c2c(N3CC4CCC(C3)O4)ccnc21
> 60000 nM |  |  |  | CNC(=O)Nc1cccc2c1C(=O)/C(=C/c1cn(C)c3nccc(-c4ccccc4)c13)O2
2300 nM |  | > 10000 nM | 11 nM | CN(C)C1CCN(C(=O)C2CCN(c3ccnc4c3c(/C=C3\Oc5ccc(NC(=O)Nc6cccnc6)cc5C3=O)cn4C)CC2)C1 (configuration not stated)
20 nM |  | > 10000 nM | 102 nM | CN(Cc1ccccc1)C(=O)C1CCN(c2ccnc3c2c(/C=C2\Oc4ccc(NC(=O)Nc5cccnc5)cc4C2=O)cn3C)CC1
2800 nM |  |  |  | CCNC(=O)Nc1ccc2c(c1)C(=O)/C(=C/c1cn(C)c3nccc(N4CC5CCC(C4)O5)c13)O2
1.8 nM |  | 249 nM |  | Cn1cc(/C=C2\Oc3ccc(NC(=O)Nc4cccnc4)cc3C2=O)c2c(N3CC4CCC3CO4)ccnc21 (configuration not stated)
60000 nM | 450 | 4040 nM | 9 nM | Cn1cc(/C=C2\Oc3ccc(NC(=O)Nc4cccnc4)cc3C2=O)c2c(N3CCC(C(=O)NCc4cccnc4)CC3)ccnc21
330 nM | 65.7 |  | 70 nM | CN1CCN(C(=O)C2CCN(c3ccnc4c3c(/C=C3\Oc5ccc(NC(=O)Nc6cccnc6)cc5C3=O)cn4C)CC2)CC1
12 nM | 111 |  |  | Cn1cc(/C=C2\Oc3ccc(NC(=O)Nc4cccnc4)cc3C2=O)c2c(N3CCC(C(=O)N4CCCC4)CC3)ccnc21
3200 nM |  |  |  | CN(Cc1cccnc1)C(=O)C1CCN(c2ccnc3c2c(/C=C2\Oc4ccc(NC(=O)Nc5cccnc5)cc4C2=O)cn3C)CC1
40 nM |  |  |  | CN(Cc1ccccn1)C(=O)C1CCN(c2ccnc3c2c(/C=C2\Oc4ccc(NC(=O)Nc5cccnc5)cc4C2=O)cn3C)CC1
